Measured values from patent US9757353B2, “Methods of inducing anesthesia” (THE REGENTS OF THE UNIVERSITY OF CALIFORNIA, priority 2012, dated 2017).

What follows are compounds tested against GABAA (α1β2γ2s) receptors (UniProt P14867+P18508+P63138) (assay: Oocyte two-electrode voltage clamp, GABAA receptor currents). Details: drug response without receptor agonist; percent of control agonist peak; saturated drug; mean ± SEM, 5-6 oocytes.
Sequence of GABAA (α1β2γ2s) receptors (P14867 28-456): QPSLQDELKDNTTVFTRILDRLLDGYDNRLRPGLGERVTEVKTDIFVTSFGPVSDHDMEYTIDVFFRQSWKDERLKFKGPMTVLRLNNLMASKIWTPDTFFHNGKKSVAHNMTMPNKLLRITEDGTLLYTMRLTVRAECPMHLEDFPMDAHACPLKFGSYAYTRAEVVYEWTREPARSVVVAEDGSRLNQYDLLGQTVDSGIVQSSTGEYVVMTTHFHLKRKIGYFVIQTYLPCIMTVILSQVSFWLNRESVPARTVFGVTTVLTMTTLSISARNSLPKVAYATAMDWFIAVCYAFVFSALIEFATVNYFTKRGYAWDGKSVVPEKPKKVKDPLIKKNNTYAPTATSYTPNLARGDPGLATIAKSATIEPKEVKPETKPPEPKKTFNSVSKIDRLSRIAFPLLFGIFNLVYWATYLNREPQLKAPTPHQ
Sequence of GABAA (α1β2γ2s) receptors (P63138 25-474 limits assumed): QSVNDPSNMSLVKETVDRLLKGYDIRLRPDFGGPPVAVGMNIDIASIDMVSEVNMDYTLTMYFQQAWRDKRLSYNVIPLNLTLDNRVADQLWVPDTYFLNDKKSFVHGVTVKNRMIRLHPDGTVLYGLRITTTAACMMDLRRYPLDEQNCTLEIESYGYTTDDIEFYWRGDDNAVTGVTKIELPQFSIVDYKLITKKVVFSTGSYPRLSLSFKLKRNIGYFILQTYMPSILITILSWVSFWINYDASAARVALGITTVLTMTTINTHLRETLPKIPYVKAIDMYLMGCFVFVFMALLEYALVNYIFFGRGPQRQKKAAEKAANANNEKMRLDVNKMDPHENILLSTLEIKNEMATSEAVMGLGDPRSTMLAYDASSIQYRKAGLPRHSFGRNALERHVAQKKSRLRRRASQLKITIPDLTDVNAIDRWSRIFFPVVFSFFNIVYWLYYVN
Sequence of GABAA (α1β2γ2s) receptors (P18508 39-466): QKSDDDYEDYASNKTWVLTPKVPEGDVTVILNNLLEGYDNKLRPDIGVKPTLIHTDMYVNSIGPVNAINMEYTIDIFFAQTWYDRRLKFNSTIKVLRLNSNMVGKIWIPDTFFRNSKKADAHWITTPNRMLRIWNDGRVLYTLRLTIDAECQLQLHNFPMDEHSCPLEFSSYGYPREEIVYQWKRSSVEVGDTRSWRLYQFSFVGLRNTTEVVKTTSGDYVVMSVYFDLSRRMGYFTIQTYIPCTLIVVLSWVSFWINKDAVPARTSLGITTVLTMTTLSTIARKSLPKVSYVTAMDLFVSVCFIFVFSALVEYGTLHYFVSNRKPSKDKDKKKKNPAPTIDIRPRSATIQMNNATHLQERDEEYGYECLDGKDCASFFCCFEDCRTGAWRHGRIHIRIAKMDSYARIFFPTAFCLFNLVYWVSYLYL

Row | Compound | GABAA % Direct Effect
1 | CCc1cccc(CC)c1 [1,3-diethylbenzene] | none
2 | CCCCCCSCC [1-(ethylthio)-hexane] | none
3 | CCCCCCCCSCC [1-(ethylthio)-octane] | none
4 | CCCCCCCCCCO [1-decanol] | none
5 | CCCCCCCCF [1-fluoroctane] | none
6 | C=CCCCC [1-hexene] | none
7 | CCCCCCCCCCCCCCCCCCN [1-octadecanamine] | none
8 | C=CCCC [1-pentene] | 2 ± 3%
9 | CCCCCCCCCC(C)=O [2-undecanone] | none
10 | CCCC [butane] | none

Further lines, results first:

Row | GABAA % Direct Effect | Compound
11 | none | CCCCCCCCCCCCO [1-dodecanol]
12 | none | CCCCCCCCCCCCCCCCCCCCN [1-eicosanamine]
13 | none | CCCCCF [1-fluoropentane]
14 | none | C#CCCCCC [1-heptyne]
15 | none | C#CCCCCCC [1-octyne]
16 | none | CCCCCCCCCCCO [1-undecanol]
17 | none | CCCCCCCCC(C)=O [2-decanone]
18 | none | CCCCCCCCCCC(C)=O [2-dodecanone]
19 | none | C1CCCCC1 [cyclohexane]

Same assay, conditions: saturated drug + agonist

Row | Compound | GABAA Drug Response
20 | CCc1cccc(CC)c1 [1,3-diethylbenzene] | + (potentiation (+) for drug+agonist responses greater than the control agonist peak)
21 | CCCCCCSCC [1-(ethylthio)-hexane] | + (potentiation (+) for drug+agonist responses greater than the control agonist peak)
22 | CCCCCCCCSCC [1-(ethylthio)-octane] | + (potentiation (+) for drug+agonist responses greater than the control agonist peak)
23 | CCCCCCCCCCO [1-decanol] | + (potentiation (+) for drug+agonist responses greater than the control agonist peak)
24 | CCCCCCCCCCCCO [1-dodecanol] | + (potentiation (+) for drug+agonist responses greater than the control agonist peak)
25 | CCCCCCCCCCCCCCCCCCCCN [1-eicosanamine] | + (potentiation (+) for drug+agonist responses greater than the control agonist peak)
26 | CCCCCCCCF [1-fluoroctane] | + (potentiation (+) for drug+agonist responses greater than the control agonist peak)
27 | CCCCCCF [1-fluorohexane] | + (potentiation (+) for drug+agonist responses greater than the control agonist peak)
28 | CCCCCF [1-fluoropentane] | + (potentiation (+) for drug+agonist responses greater than the control agonist peak)
29 | C#CCCCCC [1-heptyne] | + (potentiation (+) for drug+agonist responses greater than the control agonist peak)
30 | CCCCCCS [1-hexanethiol] | + (potentiation (+) for drug+agonist responses greater than the control agonist peak)
31 | C=CCCCC [1-hexene] | + (potentiation (+) for drug+agonist responses greater than the control agonist peak)
32 | C#CCCCC [1-hexyne] | + (potentiation (+) for drug+agonist responses greater than the control agonist peak)
33 | CCCCCCCCCCCCCCCCCCN [1-octadecanamine] | + (potentiation (+) for drug+agonist responses greater than the control agonist peak)
34 | C#CCCCCCC [1-octyne] | + (potentiation (+) for drug+agonist responses greater than the control agonist peak)
35 | C=CCCC [1-pentene] | + (potentiation (+) for drug+agonist responses greater than the control agonist peak)
36 | CCCCCCCCCCCO [1-undecanol] | + (potentiation (+) for drug+agonist responses greater than the control agonist peak)
37 | CCCCCCCCC(C)=O [2-decanone] | + (potentiation (+) for drug+agonist responses greater than the control agonist peak)
38 | CCCCCCCCCCC(C)=O [2-dodecanone] | + (potentiation (+) for drug+agonist responses greater than the control agonist peak)
39 | CCCCCCCCCC(C)=O [2-undecanone] | + (potentiation (+) for drug+agonist responses greater than the control agonist peak)
40 | CCCC [butane] | + (potentiation (+) for drug+agonist responses greater than the control agonist peak)
41 | C1CCCCC1 [cyclohexane] | + (potentiation (+) for drug+agonist responses greater than the control agonist peak)
42 | C1CCCC1 [cyclopentane] | + (potentiation (+) for drug+agonist responses greater than the control agonist peak)

Same assay, conditions: saturating aqueous concentration

Row | Compound | GABAA receptor modulation (in words)
43 | CCCC [butane] | positively modulate GABAA receptors

These compounds were tested against T1, NMDA (NR1/NR2A) receptors (Rattus norvegicus, UniProt P35439+Q00959) (assay: Oocyte two-electrode voltage clamp, NMDA receptor currents). Details: absence of glutamate and glycine agonist.
T1 construct: expressed in transfected cells; host or cells: Xenopus laevis oocytes, injected with in vitro transcribed RNA (1:1), clones a gift from Dr. R. A. Harris
T1 sequence (Q00959 23-1464, other chains not shown): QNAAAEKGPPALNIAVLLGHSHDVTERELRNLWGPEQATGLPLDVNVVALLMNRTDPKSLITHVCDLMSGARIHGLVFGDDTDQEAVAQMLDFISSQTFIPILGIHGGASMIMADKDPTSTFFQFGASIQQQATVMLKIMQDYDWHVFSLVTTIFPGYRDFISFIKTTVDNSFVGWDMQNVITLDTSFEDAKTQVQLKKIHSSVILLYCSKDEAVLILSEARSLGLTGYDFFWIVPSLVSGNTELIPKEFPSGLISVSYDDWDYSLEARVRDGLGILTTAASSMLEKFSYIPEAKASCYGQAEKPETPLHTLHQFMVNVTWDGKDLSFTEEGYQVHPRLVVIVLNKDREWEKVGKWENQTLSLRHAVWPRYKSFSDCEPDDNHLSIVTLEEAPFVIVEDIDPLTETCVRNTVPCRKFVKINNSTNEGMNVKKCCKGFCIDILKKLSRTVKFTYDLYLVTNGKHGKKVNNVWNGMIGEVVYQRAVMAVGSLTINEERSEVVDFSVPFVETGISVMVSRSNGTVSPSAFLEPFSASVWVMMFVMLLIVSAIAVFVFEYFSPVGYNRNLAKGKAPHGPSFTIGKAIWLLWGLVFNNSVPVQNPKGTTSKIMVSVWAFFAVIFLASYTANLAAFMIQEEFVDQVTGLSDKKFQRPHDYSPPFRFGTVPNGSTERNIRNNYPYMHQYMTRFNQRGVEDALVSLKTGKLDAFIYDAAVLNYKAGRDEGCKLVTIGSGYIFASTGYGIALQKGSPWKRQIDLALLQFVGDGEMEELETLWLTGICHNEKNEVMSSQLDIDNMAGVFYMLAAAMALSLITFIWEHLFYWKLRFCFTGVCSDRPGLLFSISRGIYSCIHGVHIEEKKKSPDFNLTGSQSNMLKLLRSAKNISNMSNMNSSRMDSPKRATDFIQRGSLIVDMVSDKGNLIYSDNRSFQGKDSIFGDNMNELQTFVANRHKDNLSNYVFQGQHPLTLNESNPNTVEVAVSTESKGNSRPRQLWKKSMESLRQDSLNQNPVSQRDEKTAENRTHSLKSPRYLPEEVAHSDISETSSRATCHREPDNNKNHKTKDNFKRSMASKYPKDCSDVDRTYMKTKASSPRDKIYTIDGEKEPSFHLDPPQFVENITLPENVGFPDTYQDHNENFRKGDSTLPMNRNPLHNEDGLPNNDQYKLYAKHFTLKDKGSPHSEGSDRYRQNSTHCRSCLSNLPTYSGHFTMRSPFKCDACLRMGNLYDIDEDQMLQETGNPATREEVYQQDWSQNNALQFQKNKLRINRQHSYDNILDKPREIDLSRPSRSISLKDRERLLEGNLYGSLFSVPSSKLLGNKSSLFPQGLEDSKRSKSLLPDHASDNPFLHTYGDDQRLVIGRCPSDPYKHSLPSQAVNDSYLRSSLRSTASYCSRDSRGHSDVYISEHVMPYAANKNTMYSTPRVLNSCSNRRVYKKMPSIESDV
Assay type: cell-based
Excerpt: Methods: GABAA (α1β2γ2s) or NMDA (NR1/NR2A) receptors were expressed in oocytes and studied using standard two-electrode voltage clamp techniques. Hydrocarbons from 14 different organic functional groups were studied at saturated concentrations, and compounds within each group differed only by the carbon number at the ω-position or within a saturated ring. An effect on GABAA or NMDA receptors was defined as a 10% or greater reversible current change from baseline that was statistically different from zero.
Oocyte Collection and Receptor Expression. An ovary from tricaine-anesthetized Xenopus laevis frogs was surgically removed using a protocol approved by the Institutional Animal Care and Use Committee at the University of California, Davis. Following manual disruption of the ovarian lobule septae, the ovary was incubated in 0.2% Type I collagenase (Worthington Biochemical, Lakewood, N.J.) to defolliculate oocytes which were washed and stored in fresh and filtered modified Barth's solution composed of 88 mM NaCl, 1 mM KCl, 2.4 mM NaHCO3, 20 mM HEPES, 0.82 mM MgSO4, 0.33 mM Ca(NO3)2, 0.41 mM CaCl2, 5 mM sodium pyruvate, gentamycin, penicillin, streptomycin, and corrected to pH=7.4. All salts and antibiotics were A.C.S. grade (Fisher Scientific, Pittsburgh, Pa.).
Clones used were provided as a gift from Dr. R. A. Harris (University of Texas, Austin) and were sequenced and compared to references in the National Center for Biotechnology Information database to confirm the identity of each gene. GABAA receptors were expressed using clones for the human GABAA α1 and the rat GABAA β2 and γ2s subunits in pCIS-II vectors. […] In separate oocytes, glutamate receptors were expressed using rat NMDA NR1 clones in a pCDNA3 vector and rat NMDA NR2A clones in a Bluescript vector. RNA encoding each subunit was prepared using a commercial transcription kit (T7 mMessage mMachine, Ambion, Austin, Tex.) was mixed in a 1:1 ratio, and 1-10 ng of total RNA was injected into oocytes and studied 1-2 days later.
NMDA Receptor Electrophysiology Studies. […] Briefly, baseline perfusion solutions were the same as for GABAA with the substitution of equimolar BaCl2 for calcium salts and the addition of 0.1 mM EGTA; this constituted barium frog Ringer's solution (BaFR). Agonist solutions for NMDA studies also contained 0.1 mM glutamate (E) and 0.01 mM glycine (G) to constitute a BaFREG solution.
The syringe pump and perfusion chamber apparatus as well as the clamp holding potential and baseline-agonist exposure protocols were identical to that described for the GABAA studies. The same test compounds, concentrations, and preparative methods were used in NMDA voltage clamp studies as in the GABAA voltage clamp studies (Table 2).
Response Calculations and Data Analysis. Modulating drug responses were calculated as the percent of the control (baseline) peak as follows:
[formula] where ID and IB were the peak currents measured during agonist+drug and agonist baseline perfusions, respectively. When present, direct receptor activation by a drug was similarly calculated as a percent of the agonist response. […] A lack of receptor response (cut-off) was defined as a <10% change from baseline current that was statistically indistinguishable from zero using a two-tailed Student t-test.

Row | Compound | direct effect on NMDA receptors (in words)
44 | CN1CCOCC1 [4-methylmorpholine] | direct activation of NMDA receptors
45 | N-methylpiperadine | direct activation of NMDA receptors

Same assay, conditions: drug response without receptor agonist; percent of control agonist peak; saturated drug; mean ± SEM, 5-6 oocytes

Row | Compound | NMDA % Direct Effect
46 | CCc1cccc(CC)c1 [1,3-diethylbenzene] | none
47 | CCCCCCSCC [1-(ethylthio)-hexane] | none
48 | CCCCCCCCSCC [1-(ethylthio)-octane] | none
49 | CCCCCCCCCCO [1-decanol] | none
50 | CCCCCCCCF [1-fluoroctane] | none
51 | CCCCCCF [1-fluorohexane] | none
52 | C=CCCCC [1-hexene] | none
53 | CCCCCCCCCCCCCCCCCCN [1-octadecanamine] | none
54 | C=CCCC [1-pentene] | none
55 | CCCCCCCCCC(C)=O [2-undecanone] | none
56 | CCCC [butane] | none

Continued, values first:

Row | NMDA % Direct Effect | Compound
57 | none | CCCCCCCCCCCCO [1-dodecanol]
58 | none | CCCCCCCCCCCCCCCCCCCCN [1-eicosanamine]
59 | none | CCCCCF [1-fluoropentane]
60 | none | C#CCCCCC [1-heptyne]
61 | none | CCCCCCS [1-hexanethiol]
62 | none | C#CCCCC [1-hexyne]
63 | none | C#CCCCCCC [1-octyne]
64 | none | CCCCCCCCCCCO [1-undecanol]
65 | none | CCCCCCCCC(C)=O [2-decanone]
66 | none | CCCCCCCCCCC(C)=O [2-dodecanone]
67 | none | C1CCCCC1 [cyclohexane]
68 | none | C1CCCC1 [cyclopentane]

Same assay, conditions: saturated drug + agonist

Row | Compound | NMDA Drug Response
69 | CCc1cccc(CC)c1 [1,3-diethylbenzene] | 0 (no response (0) for drug+agonist responses that differ by <10% from the control agonist peak)
70 | CCCCCCCCSCC [1-(ethylthio)-octane] | 0 (no response (0) for drug+agonist responses that differ by <10% from the control agonist peak)
71 | CCCCCCCCCCCCO [1-dodecanol] | 0 (no response (0) for drug+agonist responses that differ by <10% from the control agonist peak)
72 | CCCCCCCCCCCCCCCCCCCCN [1-eicosanamine] | 0 (no response (0) for drug+agonist responses that differ by <10% from the control agonist peak)
73 | CCCCCCCCF [1-fluoroctane] | 0 (no response (0) for drug+agonist responses that differ by <10% from the control agonist peak)
74 | CCCCCCF [1-fluorohexane] | 0 (no response (0) for drug+agonist responses that differ by <10% from the control agonist peak)
75 | CCCCCCS [1-hexanethiol] | 0 (no response (0) for drug+agonist responses that differ by <10% from the control agonist peak)
76 | C=CCCCC [1-hexene] | 0 (no response (0) for drug+agonist responses that differ by <10% from the control agonist peak)
77 | C#CCCCCCC [1-octyne] | 0 (no response (0) for drug+agonist responses that differ by <10% from the control agonist peak)
78 | CCCCCCCCCCCO [1-undecanol] | 0 (no response (0) for drug+agonist responses that differ by <10% from the control agonist peak)
79 | CCCCCCCCCCC(C)=O [2-dodecanone] | 0 (no response (0) for drug+agonist responses that differ by <10% from the control agonist peak)
80 | CCCCCCCCCC(C)=O [2-undecanone] | 0 (no response (0) for drug+agonist responses that differ by <10% from the control agonist peak)
81 | C1CCCCC1 [cyclohexane] | 0 (no response (0) for drug+agonist responses that differ by <10% from the control agonist peak)

Same assay, conditions: saturating aqueous concentration

Row | Compound | NMDA receptor modulation (in words)
82 | CCCC [butane] | negatively modulates NMDA receptors
